Data published in US4968686A, “Acyclic pyrrolo [2,3-d]pyrimidine analogs as antiviral agents” (The Regents of The University of Michigan, priority 1989, dated 1990).

What was measured:
viruses = details: cited from earlier work
HCMV [1] = assay: HCMV plaque (focus) reduction assay; format: cell-based; details: Human betaherpesvirus 5; Table 1; HFF cells; read-out: 50% Inhibitory Concentration HCMV Plaque
Text: (§1) The 148 strain of HSV-1 was used in most experiments and was provided by Dr. T. W. Schafer of Schering corporation. The HF strain of HSV-1 was used in selected experiments and was obtained from Dr. G. H. Cohen, University of Pennsylvania. The Towne strain, plaque-purified isolate Po, of HCMV was a gift of Dr. Mark Stinski, University of Iowa.
(§2) HCMV was titered in 24-well cluster dishes which were planted to contain 5×10^4 cells/well, grown as described above. When the cells were 70 to 80% confluent, 0.2 ml of the virus suspension was added per wall and adsorbed as described above. At least three ten-fold dilutions of each preparation were used. Following virus adsorption, the cell sheets were overlayed with 0.5% methocel (4000 CPS) in maintenance medium [MEM(E) with 1.1 gm/liter NaHCO3, 100 units/ml penicillin G, 100 μg/ml streptomycin, and 5% fetal bovine serum]. The cultures were incubated in a humidified atmosphere of 4% CO2 -96% air. Viral foci were visible 5 to 7 days after infection using at least 10-fold magnification. Cells were fixed and stained by a 10-minute exposure to a 0.1% solution of crystal violet in 20% methanol 7 to 12 days after infection. Microscopic foci were enumerated at 20-fold magnification using a Nikon Profile Projector.
(§3) The effect of compounds of the replication of HCMV has been measured using both a plaque (focus) reduction assay and a titer (yield) reduction assay. For the former, HFF cells in 24-well culture dishes were infected with approximately 50 p.f.u. of HCMV per well using the procedures detailed above. Compounds dissolved in growth medium were added in three to six selected concentrations to triplicate wells following virus adsorption. Following incubation at 37° C. for 7 to 10 days, cell sheets were fixed, stained and microscopic foci were enumerated as described above. Drug effects were calculated as a percentage of reduction in number of foci in the presence of each drug concentration compared to the number observed in the absence of drug. DHPG (ganciclovir) was used as a positive control in all experiments.
(§4) Dose-response relationships were used to compare drug effects. These were constructed by linearly regressing the percent inhibition of parameters derived in the preceding sections against log drug concentrations. The 50% inhibitory (I50) concentrations were calculated from the regression lines using the methods described by Goldstein. See Goldstein, A., Biostatistics: An Introductory Text, MacMillan, N.Y., 1964, pp. 156-161. Along with the I50 concentration for visual cytotoxicity, the averaged I50 concentrations are compared to I50 concentrations for inhibition for HCMV or HSV-1 replication. Compounds for which the ratio of cytotoxicity I50 concentrations to antiviral I50 concentrations (in vitro therapeutic index) were greater than 10, were considered for further study.

HCMV [2] = assay: HCMV titer (yield) reduction assay; format: cell-based; details: Human betaherpesvirus 5; for IC90: Table 1, I90, HFF cells, read-out: HCMV Yield, 90% inhibitory concentration (I90)
Text: as §1, §2
(§5) For titer reduction analysis, HFF cells were planted as described above in 24-well cluster dishes or in 25 cm^2 flasks. When monolayers were approximately 70% confluent, HCMV was added at a m.o.i. of 0.5 p.f.u. per cell and adsorbed as detailed above. Compounds dissolved in growth medium were added in one or one-half logarithm10 dilutions and incubation continued at 37° C. After 7 to 10 days of incubation, culture dishes or flasks were frozen at […] For titer determination, cells were thawed and then subjected to two more cycles of freezing and thawing at 37° C. Serial, one-logarithm10 dilutions of the final suspension were prepared and inoculated onto new cultures of HFF cells. Titer determination was as detailed above in part (1) (b).
as §4

[3] = Visual cytotoxicity scoring in HFF cells; format: cell-based; details: human, Table 1, at time of HCMV plaque enumeration, read-out: 50% Inhibitory Concentration Cytotoxicity HFF (visual)
Text: (§6) Cytotoxicity produced in HFF and BSC-1 cells was estimated by visual scoring of cells not affected by virus infection in the HCMV and HSV-1 plaque reduction assays. Cytopathology was estimated at 35- and 60-fold magnification and scored on a zero to four plus basis. Wells were scored on the day of staining.
as §4

HSV-1 = HSV-1 plaque reduction assay, strain S148; format: cell-based, herpes simplex virus type 1 (strain S148) in BSC-1 cells; details: Human alphaherpesvirus 1; Table 1; strain S148; BSC-1 cells; read-out: 50% Inhibitory Concentration HSV-1 Plaque
Text: as §1
HSV-1 was titered using monolayer cultures of BSC-1 cells. Cells were planted at 3×10^5 cells/well using 6-well cluster dishes. MEM(E) supplemented with 10% fetal bovine serum was employed as medium. After 22-24 hours, cells were 90% confluent and were inoculated in triplicate using at least three ten-fold dilutions with 0.2 ml of the virus suspension to be assayed and incubated in a humidified 4% CO2 […] atmosphere for one hour to permit viral adsorption. Following virus adsorption, the cell sheet was overlayed with 5 ml of MEM(E) with 5% serum plus 0.5% methocel (4000 CPS) and incubated an additional two to three days. Cells were fixed and stained with 0.1% crystal violet in 20% methanol and macroscopic plaques enumerated.
Plaque reduction experiments were HSV-1 were performed using monolayer cultures of BSC-1 cells. The assay was performed exactly as described above except that the 0.2 ml virus suspension contained approximately 100 p.f.u. of HSV-1. Compounds to be tested were dissolved in the overlay medium at concentrations usually ranging from 0.1 to 100 μM in half-or-one logarithm10 dilutions. Titer reduction assays were performed by planting KB cells in 25 cm^2 plastic tissue culture flasks 10 to 24 hours prior to infection. At the onset of experiments, logarithmically growing replicate monolayer cultures were 60 to 80% confluent and contained 2.5 to 4.5×10^6 cells/flask. Medium was decanted and the cultures were infected with 2 to 10 p.f.u. of HSV-1 per cell. Virus was contained in 1.0 ml of VGM supplemented with 5% fetal bovine serum. After a 1 hour adsorption period at […], the cell sheet was rinsed twice with 2 ml of VGM without serum to remove unadsorbed virus and 5 ml of VGM containing drugs at three to five selected concentrations added in duplicate. Following an 18- to 22-hour incubation at 37° C., infected monolayers were treated with EDTA-trypsin to suspend the cells; aliquots were removed, subjected to three cycles of freezing and thawing, and stored at -76° C. for subsequent virus assay. Virus was titered on BSC-1 cells as described above.
as §4

[4] = Visual cytotoxicity scoring in BSC-1 cells; format: cell-based; details: african green monkey, Table 1, at time of HSV-1 plaque enumeration, read-out: 50% Inhibitory Concentration Cytotoxicity BSC (visual)
Text: as §6, §4

in vitro = format: cell-based, human; details: human, kb cells
Description: (§7) KB or HFF cells were planted using a Costar Transplate-96 (Costar, Cambridge, Mass.) in Costar 96-well cluster dishes at a concentration of 10,000 to 12,000 cells per well. Wells were suspended in 200 μl of medium [MDM(H) plus 0.7 gm/liter NaCHO3 supplemented with 10% calf serum] per well. After incubation of 16 to 24 hours at 37° C. in a humidified atmosphere of 4% CO2 in air, […] of medium was removed per well. One-hundred μl of medium with or without compounds in twice their final concentrations was added to each well using a Titertek Multichannel Pipette. Final concentrations of compounds ranged from 0.1 to 320 μM. Fifty μl of medium containing radioactive precursors also was added to each well to give a final concentration to 1 to 3 μCi/ml of labeled precursor. [^3 H]Thd was diluted with unlabeled dThd to give a final concentration of 3 or 6 μM.
(§8) Logarithmic cell growth occurred during this time with continual uptake of labeled precursors. At the end of the incubation period, cells were individually harvested from each well using a Skatron Cell harvester (Skatronh, Inc., Sterling, Va.). Cultures for individual wells were harvested onto filter paper and washed free of unincorporated label with nine sequential washes with 5% trichloroacetic acid, nine washes with water, and nine with ethanol using the Skatron unit. Filters were dried, circles from individual cultures were punched from the filter mat and placed into mini-vials. Liquid scintillation solution was added, and radioactivity determined in a Beckman model LS8100 liquid scintillation spectrometer. All samples were counted for 2.0 minutes each, with three rounds of counting. Counts per minute were determined following the application of statistical methods to eliminate count rates which fell outside distribution limits defined by Chauvenet's rejection criterion.
(§9) All analyses were performed in triplicate. That is, three culture wells were used per time point, radioactive precursor, and drug concentration in all experiments. Results from triplicate assays were converted to percent of control and plotted as log dose-response curves from which 50% inhibitor (I50) concentrations were interpolated. Three concentrations of vidarabine were included on all plates as a positive control.
as §4

KB cells [5] = assay: cells; format: cell-based, human; details: Homo sapiens; [3H]dThd incorporation, KB cells; read-out: I50 on [3H]dThd incorporation
Description: as §7, §8, §9, §4

HCMV [6] = assay: HCMV titer, plaque or yield reduction; format: cell-based, human cytomegalovirus (Towne strain) in HFF cells
Text: as §1, §2, §3, §5, §4

[7] = Growth of KB cells (population doubling times); format: cell-based, human; details: human, kb cells; 100 μM; read-out: reduction of KB cell growth rate
Description: (§10) Population doubling times and cell viability were measured in uninfected HFF and/or KB cells. Cells were planted in replicate 6-well plastic tissue culture dishes or in 25 cm^2 flasks as described above in part 1. Following an incubation period during which cells attached to the substrate, medium was decanted, the cell sheet rinsed once with HBS, and fresh medium added. The medium consisted of MEM(E) with 1.1 gm NaHCO3 /liter and 10% fetal bovine or calf serum plus appropriate log or half-log concentrations of drug. After additional periods of incubation from 1 to 72 hours at 37° C., cells were harvested by means of 0.05% trypsin plus 0.02% EDTA in a HEPES-buffered salt solution. Cells were enumerated using either a Coulter counter or a hemocytometer and viability determining using trypsan blue dye exclusion.
(§11) In more extensive cytotoxicity testing, the halogenated compounds were tested for effects on the growth of KB cells. Populations doubling times were calculated from the logarithmic portions of growth curves and were as follows: […]

KB cells [8] = assay: Growth of KB cells (population doubling times); format: cell-based, human
Description: as §10, §11

Compound | antiviral activity previously reported (viruses) | IC50 (HCMV [1]) [µM] | IC90 (HCMV [2]) [µM] | CC50 [3] [µM] | activity against HCMV (in words) (HCMV [6]) | further results
N#Cc1cn([C@@H]2O[C@H](CO)[C@@H](O)[C@H]2O)c2ncnc(N)c12 [toyocamycin] | Broad spectrum antiviral activity |  |  |  |  | 
Nc1ncnc2c1c(I)cn2COC(CO)CO [UMJD 330, 4-amino-5-iodo-7-[(1,3-dihydroxy-2-propoxy)methyl]-pyrrolo[2,3-d]pyrimidine] |  | 3.1 | 0.9 | > 100 |  | log reduction at 100 µM (HCMV [2]; FIG. 2, 10-fold higher concentration than UMJD 183 (10 μM)): 5
NC(=S)c1cn(COCCO)c2ncnc(N)c12 [UMJD 229, 4-Amino-7-(2-hydroxyethoxymethyl)pyrrolo[2,3-d]pyrimidine-5-thiocarboxamide] |  | 11 | 80 | 100 | active | IC50 (HSV-1): > 100 µM; CC50 [4]: > 100 µM; CC50 (in vitro): > 100 µM; IC50 (KB cells [5]): 10 µM
NC(=S)c1cn(COC(CO)CO)c2ncnc(N)c12 [UMJD 239, 4-Amino-7-[(1,3-dihydroxy-2-propoxy)methyl]pyrrolo[2,3-d]-pyrimidine-5-thiocarboxamide] |  | 8 | 25 | > 100 |  | IC50 (HSV-1): > 100 µM; CC50 [4]: > 100 µM; CC50 (in vitro): > 100 µM; IC50 (KB cells [5]): 28 µM
OCC(CO)OCn1cc(Cl)c2c(NO)ncnc21 [UMJD 328, 4-hydroxylamino-5-chloro-7-[(1,3-dihydroxy-2-propoxy)methyl]pyrrolo[2,3-d]pyrimidine] |  | 56 | 24 | > 100 | active and nearly as potent as the 4-amino analogs | 
Nc1ncnc2c1ccn2[C@@H]1O[C@H](CO)[C@@H](O)[C@H]1O [tubercidin] | Broad spectrum antiviral activity |  |  |  |  | 
OCC(CO)OCn1cc(I)c2c(NO)ncnc21 [UMJD 329, 4-hydroxylamino-5-iodo-7-[(1,3-dihydroxy-2-propoxy)methyl]pyrrolo[2,3-d]pyrimidine] |  | 18 | 3.2 | > 100 | active and nearly as potent as the 4-amino analogs | inhibition at 100 µM [7]: > 50%; KB cell growth rate (in words) (KB cells [8]; 10 μM): nearly control rates; effect on KB cell growth (in words) (KB cells [8]; comparison with UMJD 102 / UMJD 183): considerably lesser effects on cell growth
NC(=O)c1cn([C@@H]2O[C@H](CO)[C@@H](O)[C@H]2O)c2ncnc(N)c12 [sangivamycin] | Broad spectrum antiviral activity |  |  |  |  | 
